The values that follow come from ChEMBL document CHEMBL4024738, “Design of antitumor agents containing carbohydrate based on GLUT1, and evaluation of antiproliferative activity” (Bioorg Med Chem Lett, 2017).

Data set [1] relates to A549. The experiment in a line: Antiproliferative activity against human A549 cells after 48 hrs by MTT assay. The format is functional, cell-based. To be noted: A549, 48 h.
The next data set deals with HeLa. The experiment in a line: Antiproliferative activity against human HeLa cells after 48 hrs by MTT assay. The class given is functional, cell-based. A general note: Formazan colour is commonly taken as a measure of viable cells.
The nature of data set [2]: Antiproliferative activity against human U87 cells after 48 hrs by MTT assay. The class given is functional, cell-based, U-87MG ATCC. To be noted: U-87 MG.
The test system of a further data set is HepG2. The experiment in a line: Antiproliferative activity against human HepG2 cells after 48 hrs by MTT assay. The note with it: HepG2, 48 h. The class given is functional, cell-based.
In data set [3] the test system is A549. The experiment in a line: Cell cycle arrest in human A549 cells assessed as accumulation at G0/G1 phase at 8 uM after 48 hrs by propidium iodide staining based flow cytometric analysis (reference value: 42.86%). The class given is functional.
Data set [4] relates to A549. The experiment in a line: Induction of apoptosis in human A549 cells assessed as early apoptotic cells at 16 uM after 48 hrs by annexin V-FITC/propidium iodide staining-based flow cytometric method (reference value: 3.87%). The format is functional. For orientation: A flow cytometer gives signals particle by particle.
The test system of data set [5] is A549. Put plainly: Induction of apoptosis in human A549 cells assessed as late apoptotic cells at 16 uM after 48 hrs by annexin V-FITC/propidium iodide staining-based flow cytometric method (reference value: 2.39%). The class given is functional.
The subject of data set [6] is A549. Put plainly: Induction of apoptosis in human A549 cells after 48 hrs by annexin V-FITC/propidium iodide staining-based flow cytometric method. The format is functional, cell-based.
Data set [7] concerns the target T1, Solute carrier family 2, facilitated glucose transporter member 1 (Homo sapiens, UniProt P11166).
T1 sequence (P11166 whole entry): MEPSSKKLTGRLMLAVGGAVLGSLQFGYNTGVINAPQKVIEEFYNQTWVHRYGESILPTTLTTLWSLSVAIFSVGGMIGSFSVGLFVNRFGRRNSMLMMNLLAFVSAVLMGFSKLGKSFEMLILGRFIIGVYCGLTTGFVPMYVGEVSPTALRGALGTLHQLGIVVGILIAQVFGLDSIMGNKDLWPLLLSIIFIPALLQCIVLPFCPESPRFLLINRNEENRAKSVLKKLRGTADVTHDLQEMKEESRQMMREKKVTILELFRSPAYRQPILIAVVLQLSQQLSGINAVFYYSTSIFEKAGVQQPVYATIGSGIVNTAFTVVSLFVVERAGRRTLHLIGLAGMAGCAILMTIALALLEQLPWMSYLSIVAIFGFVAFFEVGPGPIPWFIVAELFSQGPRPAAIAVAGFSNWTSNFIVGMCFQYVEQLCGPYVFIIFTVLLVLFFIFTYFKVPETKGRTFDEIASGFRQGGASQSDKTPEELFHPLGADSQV
The experiment in a line: Substrate activity at GLUT1 in human A549 cells assessed cellular uptake at 20 uM after 8 hrs in presence of 100 mM D-glucose by HPLC analysis relative to control. The format is ADME, cell-based. The note with it: a549, 8 h.

In data set [8] the test system is A549. Put plainly: Cell cycle arrest in human A549 cells assessed as accumulation at G0/G1 phase at 24 uM after 48 hrs by propidium iodide staining based flow cytometric analysis (reference value: 42.86%). The class given is functional.
The test system of data set [9] is A549. Put plainly: Induction of apoptosis in human A549 cells assessed as necrotic cells at 8 uM after 48 hrs by annexin V-FITC/propidium iodide staining-based flow cytometric method (reference value: 0.13%). The format is functional.
Data set [10] deals with T1, Solute carrier family 2, facilitated glucose transporter member 1. Put plainly: Substrate activity at GLUT1 in human A549 cells assessed cellular uptake at 20 uM after 8 hrs in presence of 100 mM GLUT1 inhibitor EDG by HPLC analysis relative to control. The format is ADME, cell-based. The note with it: a549, 8 h.
For data set [11], the system named is A549. The experiment in a line: Induction of apoptosis in human A549 cells assessed as late apoptotic cells at 24 uM after 48 hrs by annexin V-FITC/propidium iodide staining-based flow cytometric method (reference value: 2.39%). The format is functional.
In data set [12] the target is T1, Solute carrier family 2, facilitated glucose transporter member 1. The experiment in a line: Substrate activity at GLUT1 in human A549 cells assessed cellular uptake at 20 uM after 8 hrs in presence of 50 mM D-glucose by HPLC analysis relative to control. The class given is ADME, cell-based. The note with it: a549, 8 h.
Data set [13] concerns A549. The experiment in a line: Induction of apoptosis in human A549 cells assessed as live cells at 24 uM after 48 hrs by annexin V-FITC/propidium iodide staining-based flow cytometric method (reference value: 93.6%). The format is functional.
The target in data set [14] is T1, Solute carrier family 2, facilitated glucose transporter member 1. The experiment in a line: Substrate activity at GLUT1 in human A549 cells assessed cellular uptake at 20 uM after 8 hrs by HPLC analysis relative to control. The note with it: a549, 8 h. The class given is ADME, cell-based.
Data set [15] concerns A549. The experiment in a line: Cell cycle arrest in human A549 cells assessed as accumulation at S phase at 8 uM after 48 hrs by propidium iodide staining based flow cytometric analysis (reference value: 54.85%). The class given is functional.
Data set [16] relates to A549. The experiment in a line: Cell cycle arrest in human A549 cells assessed as accumulation at G2/M phase at 24 uM after 48 hrs by propidium iodide staining based flow cytometric analysis (reference value: 2.29%). The format is functional.
Data set [17] relates to A549. Put plainly: Induction of apoptosis in human A549 cells assessed as live cells at 16 uM after 48 hrs by annexin V-FITC/propidium iodide staining-based flow cytometric method (reference value: 93.6%). The format is functional.
The subject of data set [18] is A549. The experiment in a line: Cell cycle arrest in human A549 cells assessed as accumulation at S phase at 16 uM after 48 hrs by propidium iodide staining based flow cytometric analysis (reference value: 54.85%). The format is functional.
Data set [19] concerns A549. The experiment in a line: Potency index, ratio of gefitinib IC50 to compound IC50 against human A549 cells. The format is functional.
Data set [20] relates to A549. The experiment in a line: Induction of apoptosis in human A549 cells assessed as late apoptotic cells at 8 uM after 48 hrs by annexin V-FITC/propidium iodide staining-based flow cytometric method (reference value: 2.39%). The class given is functional.
In data set [21] the test system is A549. Put plainly: Cell cycle arrest in human A549 cells assessed as accumulation at G0/G1 phase at 16 uM after 48 hrs by propidium iodide staining based flow cytometric analysis (reference value: 42.86%). The class given is functional.
Data set [22] has as its system A549. Put plainly: Cell cycle arrest in human A549 cells assessed as accumulation at S phase at 24 uM after 48 hrs by propidium iodide staining based flow cytometric analysis (reference value: 54.85%). The class given is functional.
Data set [23] relates to A549. The experiment in a line: Cell cycle arrest in human A549 cells assessed as accumulation at G2/M phase at 8 uM after 48 hrs by propidium iodide staining based flow cytometric analysis (reference value: 2.29%). The class given is functional.
For data set [24], the system named is A549. The experiment in a line: Induction of apoptosis in human A549 cells assessed as live cells at 8 uM after 48 hrs by annexin V-FITC/propidium iodide staining-based flow cytometric method (reference value: 93.6%). The format is functional.
The subject of data set [25] is A549. The experiment in a line: Induction of apoptosis in human A549 cells assessed as necrotic cells at 24 uM after 48 hrs by annexin V-FITC/propidium iodide staining-based flow cytometric method (reference value: 0.13%). The format is functional.
In data set [26] the test system is A549. The experiment in a line: Antimigratory activity against human A549 cells assessed as reduction in cell migration towards wound area after 48 hrs by phase contrast microscopic method. The class given is functional, cell-based.
The test system of data set [27] is A549. The experiment in a line: Cell cycle arrest in human A549 cells assessed as accumulation at G0/G1 phase after 48 hrs by propidium iodide staining based flow cytometric analysis. The format is functional.
Data set [28] has as its target T1, Solute carrier family 2, facilitated glucose transporter member 1. Put plainly: Substrate activity at GLUT1 in human A549 cells assessed cellular uptake at 20 uM after 8 hrs in presence of 50 mM GLUT1 inhibitor EDG by HPLC analysis relative to control. The format is ADME, cell-based. The note with it: a549, 8 h.
Data set [29] deals with A549. The experiment in a line: Induction of apoptosis in human A549 cells assessed as early apoptotic cells at 8 uM after 48 hrs by annexin V-FITC/propidium iodide staining-based flow cytometric method (reference value: 3.87%). The class given is functional.
Data set [30] deals with A549. The experiment in a line: Induction of apoptosis in human A549 cells assessed as necrotic cells at 16 uM after 48 hrs by annexin V-FITC/propidium iodide staining-based flow cytometric method (reference value: 0.13%). The format is functional.
For data set [31], the system named is A549. Put plainly: Induction of apoptosis in human A549 cells assessed as early apoptotic cells at 24 uM after 48 hrs by annexin V-FITC/propidium iodide staining-based flow cytometric method (reference value: 3.87%). The format is functional.
The subject of data set [32] is A549. The experiment in a line: Cell cycle arrest in human A549 cells assessed as accumulation at G2/M phase at 16 uM after 48 hrs by propidium iodide staining based flow cytometric analysis (reference value: 2.29%). The class given is functional.

In general, IC50 refers to the concentration needed to halve the response being measured. The low end stands for greater potency, the high end for weaker potency. On to `COc1cc(CO)c(Br)c(Br)c1OCCCO[C@@H]1O[C@H](CO)[C@@H](O)[C@H]1O`, for which the half-maximal inhibitory concentration (IC50) in the data set with A549 [1] was 23.6 µM; in the data set with HeLa, 20.4 µM; in data set [2], 11.2 µM; in the data set with HepG2, 18.8 µM.

With `COc1cc(COC(C)C)c(Br)c(Br)c1OCCCO[C@@H]1O[C@H](CO)[C@@H](O)[C@H]1O`, the half-inhibitory concentration (IC50) with A549 [1] turned out to be 11.4 µM; in the data set with HeLa it was 19.3 µM; in data set [2], 11.3 µM; in the data set on HepG2, 14.7 µM. Also, the Activity is 59.17% in the data set with A549 [3]; 7.66% in the data set with A549 [4]; 3.91% in the data set with A549 [5]; “Dose-dependent effect” in the data set with A549 [6]; 89.56% in the data set with A549 [8]; 0.24% in the data set with A549 [9]. The Activity in the data set with A549 [11] is listed as 4.35%; in the data set with A549 [13] it was 81.8%; with A549 [15], 40.83%; in the data set with A549 [16], 0.19%; in the data set on A549 [17], 88.1%; in the data set with A549 [18] it was 23.44%. Besides, the Activity with A549 [20] was found to be 3.75%; with A549 [21], 76.56%; in the data set on A549 [22], 10.25%; with A549 [23], 0%; in the data set on A549 [24], 91.8%; with A549 [25], 0.15%. In addition, the Activity result was “Dose-dependent effect” in the data set with A549 [26]; “Dose-dependent effect” in the data set on A549 [27]; 4.18% in the data set on A549 [29]; 0.32% with A549 [30]; 13.7% in the data set on A549 [31]; 0% with A549 [32]. Also, the Drug uptake is 49.1% in data set [7]; 34.6% in data set [10]; 51.6% in data set [12]; 60.3% in data set [14]; 42.1% in [28]. Also, in the data set with A549 [19], the “Ratio IC50” value was 2.

As for `COc1cc(COC(C)C)c(Br)c(Br)c1O`, the Drug uptake entry in data set [14] is recorded as “Not Active”.
